# Experiments:
# Assay type in all cases: cell-based
# [1] = system: NCI-H23; assay: SRB growth assay, 6 days exposure, non-small cell lung cancer; settings: NCI-H23, 6 days
# Procedure: (§1) Arsenic trioxide (1 mg/ml, 10 mg/ampoule, manufactured by Taylor Pharmaceuticals, Decatur, Ill.) was tested at five concentrations each at 10-fold dilutions, i.e., 10^−5, 10^−6, 10^−7, 10^−8 and 10^−9 μg/ml.
# (§2) The in vitro tests were performed by incubating the test cells in the presence of the indicated concentration of arsenic trioxide under standard culture conditions for a designated period of time, which is followed by a sulforhodamine B (SRB) protein assay to estimate cell viability or growth. The cell lines are organized into subpanels according to the origin of the cell lines, e.g., leukemia, breast cancer, etc. A description of the cell lines and method of testing is described in Monk et al. (1997, Anticancer Drug Des. 12:533-41) and Weinstein et al., (1997, Science 275:343-9), which are incorporated herein in their entirety.
# (§3) The measurement of an effect is expressed in Percentage Growth (PG). The measured effect of the compound on a cell line is calculated according to one or the other of the following two expressions: If (Mean ODtest−Mean ODzero)≧0. then PG=100×(Mean ODtest−Mean ODzero)/(Mean ODctrl−Mean ODzero) If (Mean ODtest−Mean ODzero)<0. then PG=100×(Mean ODtest−Mean ODzero)/(Mean ODzero where: • Mean ODzero=the average of optical density measurements of SRB-derived color just before exposure of cells to the test compounds; • Mean ODtest=the average of optical density measurements of SRB-derived color after exposure of cells to the test compound for a designated period of time; and • Mean ODctrl=the average of optical density measurements of SRB-derived color after with no exposure of cells to the test compound for a designated period of time
# (§4) The first two columns describe the subpanel (e.g., leukemia) and cell line (e.g., CCRF-CEM) involved. The next two columns list the Mean ODzero and Mean ODctrl; the next five columns list the Mean ODtest for each of five different concentrations. Each concentration is expressed as the log10 (molar or μg/ml). The next five columns list the calculated PGs for each concentration. The response parameters GI50, TGI and LC50 are interpolated values representing the concentrations at which the PG is +50, 0, and −50, respectively. Sometimes these response parameters cannot be obtained by interpolation. If, for instance, all of the PGs in a given row exceed +50, then none of the three parameters can be obtained by interpolation. In such a case, the value given for each response parameter is the highest concentration tested and is preceded by a “>” sign. This practice is extended similarly to the other possible situations where a response parameter cannot be obtained by interpolation.
# (§5) In the first set, the cells from 56 different cancer cell lines were exposed to five concentrations of arsenic trioxide continuously for two days prior to performing the SRB assay. In the second set, the cells from 50 different cell lines (a subset of the first 56 cell lines, plus the renal cancer cell line 786-0) were exposed continuously for six days prior to the SRB assay.
# [2] = system: NCI-H522; assay: as above; settings: NCI-H522, 6 days
# Procedure: as §1, §2, §3, §4, §5
# [3] = system: HOP-62; assay: as above; settings: HOP-62, 6 days
# Procedure: as §1, §2, §3, §4, §5
# [4] = system: HOP-92; assay: as above; settings: HOP-92, 6 days
# Procedure: as §1, §2, §3, §4, §5
# [5] = system: UACC-257; assay: SRB growth assay, 2 days exposure, melanoma
# Procedure: as §1, §2, §3, §4, §5
# [6] = system: SK-MEL-5; assay: SRB growth assay, 2 days exposure, melanoma
# Procedure: as §1, §2, §3, §4, §5
# [7] = system: MALME-3M; assay: SRB growth assay, 2 days exposure, melanoma
# Procedure: as §1, §2, §3, §4, §5
# [8] = system: UACC-62; assay: SRB growth assay, 2 days exposure, melanoma
# Procedure: as §1, §2, §3, §4, §5
# [9] = system: SK-MEL-28; assay: SRB growth assay, 2 days exposure, melanoma
# Procedure: as §1, §2, §3, §4, §5
# [10] = system: SK-MEL-2; assay: SRB growth assay, 2 days exposure, melanoma
# Procedure: as §1, §2, §3, §4, §5
# [11] = system: LOX IMVI; assay: SRB growth assay, 2 days exposure, melanoma
# Procedure: as §1, §2, §3, §4, §5
# [12] = read-out: LC50 (the source's name)
substance,measurement,setting,value
arsenic trioxide,Mean Optical Densities,[1]; Log 10 Concentration −4.9,0.086
same,Percent Growth,[1]; Log 10 Concentration −4.9,1%
same,Mean Optical Densities,[1]; Log 10 Concentration −5.9,1.303
same,Percent Growth,[1]; Log 10 Concentration −5.9,79%
same,Mean Optical Densities,[1]; Log 10 Concentration −6.9,1.872
same,Percent Growth,[1]; Log 10 Concentration −6.9,116%
same,Mean Optical Densities,[1]; Log 10 Concentration −7.9,1.814
same,Percent Growth,[1]; Log 10 Concentration −7.9,112%
same,Mean Optical Densities,[1]; Log 10 Concentration −8.9,1.818
same,Percent Growth,[1]; Log 10 Concentration −8.9,113%
same,CC50,[1]; [12],> 12.6 µM
same,Mean Optical Densities,[2]; Log 10 Concentration −4.9,0.028
same,Percent Growth,[2]; Log 10 Concentration −4.9,−84%
same,Mean Optical Densities,[2]; Log 10 Concentration −5.9,0.128
same,Percent Growth,[2]; Log 10 Concentration −5.9,−27%
same,Mean Optical Densities,[2]; Log 10 Concentration −6.9,1.191
same,Percent Growth,[2]; Log 10 Concentration −6.9,97%
same,Mean Optical Densities,[2]; Log 10 Concentration −7.9,0.535
same,Percent Growth,[2]; Log 10 Concentration −7.9,34%
same,Mean Optical Densities,[2]; Log 10 Concentration −8.9,1.269
same,Percent Growth,[2]; Log 10 Concentration −8.9,104%
same,Mean Optical Densities,[3]; Log 10 Concentration −4.9,0.014
same,Percent Growth,[3]; Log 10 Concentration −4.9,−77%
same,Mean Optical Densities,[3]; Log 10 Concentration −5.9,0.451
same,Percent Growth,[3]; Log 10 Concentration −5.9,40%
same,Mean Optical Densities,[3]; Log 10 Concentration −6.9,1.019
same,Percent Growth,[3]; Log 10 Concentration −6.9,99%
same,Mean Optical Densities,[3]; Log 10 Concentration −7.9,0.997
same,Percent Growth,[3]; Log 10 Concentration −7.9,97%
same,Mean Optical Densities,[3]; Log 10 Concentration −8.9,1.076
same,Percent Growth,[3]; Log 10 Concentration −8.9,105%
same,Mean Optical Densities,[4]; Log 10 Concentration −4.9,0.079
same,Percent Growth,[4]; Log 10 Concentration −4.9,−31%
same,Mean Optical Densities,[4]; Log 10 Concentration −5.9,1.229
same,Percent Growth,[4]; Log 10 Concentration −5.9,95%
same,Mean Optical Densities,[4]; Log 10 Concentration −6.9,1.319
same,Percent Growth,[4]; Log 10 Concentration −6.9,102%
same,Mean Optical Densities,[4]; Log 10 Concentration −7.9,1.834
same,Percent Growth,[4]; Log 10 Concentration −7.9,146%
same,Mean Optical Densities,[4]; Log 10 Concentration −8.9,1.455
same,Percent Growth,[4]; Log 10 Concentration −8.9,114%
same,CC50,[4]; [12],> 12.6 µM
same,TGI,[5],>0.0126 ng/mL
same,Percent Growth,[5]; log10 conc −4.9,40%
same,Percent Growth,[5]; log10 conc −5.9,88%
same,Percent Growth,[5]; log10 conc −6.9,104%
same,Percent Growth,[5]; log10 conc −7.9,97%
same,Percent Growth,[5]; log10 conc −8.9,101%
same,TGI,[6],>0.0126 ng/mL
same,Percent Growth,[6]; log10 conc −4.9,0%
same,Percent Growth,[6]; log10 conc −5.9,78%
same,Percent Growth,[6]; log10 conc −6.9,95%
same,Percent Growth,[6]; log10 conc −7.9,97%
same,Percent Growth,[6]; log10 conc −8.9,96%
same,TGI,[7],0.00602 ng/mL
same,Percent Growth,[7]; log10 conc −4.9,−42%
same,Percent Growth,[7]; log10 conc −5.9,90%
same,Percent Growth,[7]; log10 conc −6.9,102%
same,Percent Growth,[7]; log10 conc −7.9,123%
same,Percent Growth,[7]; log10 conc −8.9,138%
same,TGI,[8],>0.0126 ng/mL
same,Percent Growth,[8]; log10 conc −4.9,6%
same,Percent Growth,[8]; log10 conc −5.9,96%
same,Percent Growth,[8]; log10 conc −6.9,103%
same,Percent Growth,[8]; log10 conc −7.9,103%
same,Percent Growth,[8]; log10 conc −8.9,104%
same,TGI,[9],>0.0126 ng/mL
same,Percent Growth,[9]; log10 conc −4.9,6%
same,Percent Growth,[9]; log10 conc −5.9,94%
same,Percent Growth,[9]; log10 conc −6.9,101%
same,Percent Growth,[9]; log10 conc −7.9,103%
same,Percent Growth,[9]; log10 conc −8.9,100%
same,TGI,[10],0.00881 ng/mL
same,Percent Growth,[10]; log10 conc −4.9,−17%
same,Percent Growth,[10]; log10 conc −5.9,91%
same,Percent Growth,[10]; log10 conc −6.9,110%
same,Percent Growth,[10]; log10 conc −7.9,103%
same,Percent Growth,[10]; log10 conc −8.9,113%
same,TGI,[11],>0.0126 ng/mL
same,Percent Growth,[11]; log10 conc −4.9,13%
same,Percent Growth,[11]; log10 conc −5.9,73%
same,Percent Growth,[11]; log10 conc −6.9,71%
same,Percent Growth,[11]; log10 conc −7.9,88%
same,Percent Growth,[11]; log10 conc −8.9,89%

# Source: patent US6875451B2, “Compositions and methods for the treatment of primary and metastatic neoplastic diseases using arsenic compounds” (PolaRx Biopharmaceuticals Inc., priority 1997, dated 2005)
